From patent US5118675A, “Quinoxaline phosphono-amino acids” (American Home Products Corporation, priority 1991, dated 1992) come the findings set out here.

Assay [1] has as its target NMDA receptor. Kind of assay: Displacement of tritiated CPP ([3H] CPP binding) in rat frontal cortex homogenates. Here is the method: CPP binding at 10 μM concentrations. The IC50 calculated for these compounds is as follows: […]
Assay [2] concerns NMDA-lethality. In words: NMDA-lethality model in mice (antagonism of NMDA in vivo, survival). Further details: species or system mouse (male Swiss-albino, CD-1 strain). As to conditions: Mus musculus, ip, 0.5 h; test compound i.p. 30 min before NMDA 195 mg/kg i.p.; 30 min observation. As for the experimental part:
Male Swiss-albino mice (CD-1 strain, Charles River) 18-22 grams in weight, after 18 hours of food deprivation, were habituated to an observation chamber for 30 minutes. The mice were pretreated with the representative test compound followed thirty minutes later with NMDA, 195 mg/kg, i.p., which is a dose normally causing 90% mortality resulting from motor seizures including uncontrollable hind leg scratching or limbs and/or torso muscle jerking with loss of righting reflex followed by death within the 30 minute observation period after NMDA administration. From the latter, the ED50 for survival is determined.

For the molecule `NC(Cc1nc2cc(Cl)ccc2nc1CP(=O)(O)O)C(=O)O` (stereo not drawn) [Example 8, α-Amino-7-chloro-3-(phosphonomethyl)-2-quinoxalinepropanoic Acid], the 50% inhibitory concentration (IC50) (as a rule, the concentration needed to halve the response being measured) in assay [1] turned out to be 0.024 µM. Also, the median effective dose (ED50) (as a rule, the dose at which the effect has come halfway, by size or by number of responders) in assay [2] stood at 1.13 mg/kg.

With `COc1cc2nc(CC(N)C(=O)O)c(CP(=O)(O)O)nc2cc1OC` (stereo not drawn) [Example 11, α-Amino-6,7-dimethoxy-3-(phosphonomethyl)-2-quinoxalinepropanoic Acid], in assay [1], the concentration for half-maximal inhibition (IC50) turned out to be 0.832 µM.

Turning to `NC(Cc1nc2cc3ccccc3cc2nc1CP(=O)(O)O)C(=O)O` (stereo not drawn) [Example 5, α-Amino-3-(phosphonomethyl)-2-benzo[g]quinoxalinepropanoic Acid], the IC50 in assay [1] stood at 0.006 µM. The 50% effect level in assay [2] (ED50) was put at a dose of 5.3 mg/kg.

In assay [1], `NC(Cc1nc2cc(Cl)c(Cl)cc2nc1CP(=O)(O)O)C(=O)O` (stereo not drawn) [Example 7, α-Amino-6,7-dichloro-3-(phosphonomethyl)-2-quinoxalinepropanoic Acid] returned a concentration for half-maximal inhibition (IC50) of 0.004 µM. In assay [2], this molecule came in with a median effective dose (ED50) of 1.58 mg/kg.

For the molecule `NC(Cc1nc2ccccc2nc1CP(=O)(O)O)C(=O)O` (racemic) [Example 1, α-Amino-3-(phosphonomethyl)-2-quinoxalinepropanoic Acid], in assay [1], the half-maximal inhibitory concentration (IC50) was found to be 0.11 µM. This molecule had an ED50 in assay [2] of 3.72 mg/kg.

For the molecule `Cc1cc2nc(CC(N)C(=O)O)c(CP(=O)(O)O)nc2cc1C` (stereo not drawn) [Example 4, α-Amino-6,7-dimethyl-3-(phosphonomethyl)-2-quinoxalinepropanoic Acid], the concentration for half-maximal inhibition (IC50) in assay [1] is 0.022 µM.

Consider `NC(Cc1nc2cc(F)c(F)cc2nc1CP(=O)(O)O)C(=O)O` (stereo not drawn) [Example 10, α-Amino-6,7-difluoro-3-(phosphonomethyl)-2-quinoxalinepropanoic Acid], for which the half-inhibitory concentration (IC50) in assay [1] stood at 0.166 µM.

Regarding `N[C@@H](CCC(=O)O)C(=O)O` [L-glutamic acid, reference compound], the IC50 in assay [1] worked out at 0.064 µM.

“D(-)-2-amino-5-phosphono-heptanoic acid [D(-)-2-amino-5-phosphonoheptanoic acid, reference compound]” came in with an IC50 in assay [1] of 0.639 µM.

With `NC(Cc1nc2ccccc2nc1CP(=O)(O)O)C(=O)O` (single isomer, unassigned) [Laevoisomer of Example 3, (-)-α-amino-3-(phosphonomethyl)-2-quinoxalinepropanoic acid], the IC50 in assay [1] came out at 0.029 µM. Further, the ED50 in assay [2] amounted to 1.52 mg/kg.
